The values that follow come from US20100204243A1, “Process for the Preparation of Poly DL-Lactide-Co-Glycolide Nanoparticles Having Antitubercular Drugs Encapsulated Therein” (priority 2005, published 2010).

In brackets after ≈: the same amount, converted by molar mass.

Data set [1] in a line: Stability of ethambutol in the presence of isoniazid. In kind it is physicochemical. The source says: 765/Del/2003. However, a disadvantage associated therewith is that due to its unstability properties, ethambutol would degrade.
Data set [2] concerns M. tuberculosis. To be noted: cited from earlier work.

As to `CC[C@@H](CO)NCCN[C@@H](CC)CO` [ethambutol], in data set [1], the “stability in the presence of isoniazid” value was “highly unstable”. Further, the “minimum inhibitory concentration (MIC)” value in data set [2] is 1.5 µg/mL (≈ 7.34 µM).
